Measured values published in patent US12653830B2, “Substituted imidazoquinoxaline compounds and uses thereof” (Impact Therapeutics (Shanghai), Inc, priority 2019, dated 2026).
Where two headings read alike, the source gives them in different places.

Columns and labels:
[1] = system: human breast cancer cell MDA-MB-468; assay: MTT proliferation assay, MDA-MB-468; assay type: cell-based; conditions: Homo sapiens, MDA-MB-468, 168 h, 7 days, single agent, read-out: IC50, inhibition of proliferation of MDA-MB-468
Description: Determination of the Inhibitory Effect of the Compound of Example 2 and its Analogues on the Proliferation of Human Breast Cancer Cell MDA-MB-468 Using MTT Assay
The human breast cancer cells MDA-MB-468 were cultured in RPMI 1640 medium with 10% FBS and used at 90% confluence. The MDA-IVB-468 cells were digested with trypsinase and centrifuged at 800 rpm for 5 minutes. The supernatant was discarded and the cell pellets were resuspended with fresh medium and counted. Cells were seeded to 96-well cell culture plates with appropriate cell density and incubated overnight at 37° C., 5% CO2. […] 5 μL of solutions of each concentration was added to 120 μL of medium (diluted by 25 times) and mixed by shaking. The culture medium of cells cultured overnight was discarded and replaced with 195 μL/well of fresh medium (RPMI 1640+5% FBS) and 5 μL/well of diluted medium containing the test compound of corresponding concentrations (the final concentration of DMSO was 1%), and the culture plate was then returned to 5% CO2 incubator at 37° C. for 7 days (on the fourth day, dressing was changed once and culture was continued). On the day of experiment, culture medium was discarded and replaced with 100 μL/well of fresh serum-free DMEM medium containing MTT (0.5 mg/mL), and the culture was continued. After 4 hours, medium was discarded and replaced with 100 μL/well of DMSO, the plates were shaken for 10 minutes in darkness and the absorbance was measured at the wavelengths of 552 and 693 nm using a multi-function plate reader. Graph Pad Prism 6.0 was used to analyze the data. The inhibitory effects of compounds on cell proliferation were plotted based on cell viability vs. the logarithm of compound concentration. Cell viability %=(ODcompound−ODbackground)/(ODDMSO−ODbackground)×100.
Table 4 summarizes the inhibitory effect data (IC50) of some compounds on the proliferation of human breast cancer cell MDA-MB-468.

ATM kinase = target: T1, ATM kinase (Homo sapiens, UniProt Q13315); assay: In vitro ATM kinase assay (Cisbio HTRF, p53 substrate); assay type: biochemical; conditions: 30 μM ATP; for inhibition at 0.0001 µM: Conc. 0.1 nM; for inhibition at 0.0001 µM / inhibition at 0.001 µM / inhibition at 0.01 µM: read-out: Inh % (inhibitory effect on ATM kinase activity); for inhibition at 0.001 µM: Conc. 1 nM; for inhibition at 0.01 µM: Conc. 10 nM
T1 construct: purchased Eurofins 14-933
T1 sequence (Q13315 whole entry): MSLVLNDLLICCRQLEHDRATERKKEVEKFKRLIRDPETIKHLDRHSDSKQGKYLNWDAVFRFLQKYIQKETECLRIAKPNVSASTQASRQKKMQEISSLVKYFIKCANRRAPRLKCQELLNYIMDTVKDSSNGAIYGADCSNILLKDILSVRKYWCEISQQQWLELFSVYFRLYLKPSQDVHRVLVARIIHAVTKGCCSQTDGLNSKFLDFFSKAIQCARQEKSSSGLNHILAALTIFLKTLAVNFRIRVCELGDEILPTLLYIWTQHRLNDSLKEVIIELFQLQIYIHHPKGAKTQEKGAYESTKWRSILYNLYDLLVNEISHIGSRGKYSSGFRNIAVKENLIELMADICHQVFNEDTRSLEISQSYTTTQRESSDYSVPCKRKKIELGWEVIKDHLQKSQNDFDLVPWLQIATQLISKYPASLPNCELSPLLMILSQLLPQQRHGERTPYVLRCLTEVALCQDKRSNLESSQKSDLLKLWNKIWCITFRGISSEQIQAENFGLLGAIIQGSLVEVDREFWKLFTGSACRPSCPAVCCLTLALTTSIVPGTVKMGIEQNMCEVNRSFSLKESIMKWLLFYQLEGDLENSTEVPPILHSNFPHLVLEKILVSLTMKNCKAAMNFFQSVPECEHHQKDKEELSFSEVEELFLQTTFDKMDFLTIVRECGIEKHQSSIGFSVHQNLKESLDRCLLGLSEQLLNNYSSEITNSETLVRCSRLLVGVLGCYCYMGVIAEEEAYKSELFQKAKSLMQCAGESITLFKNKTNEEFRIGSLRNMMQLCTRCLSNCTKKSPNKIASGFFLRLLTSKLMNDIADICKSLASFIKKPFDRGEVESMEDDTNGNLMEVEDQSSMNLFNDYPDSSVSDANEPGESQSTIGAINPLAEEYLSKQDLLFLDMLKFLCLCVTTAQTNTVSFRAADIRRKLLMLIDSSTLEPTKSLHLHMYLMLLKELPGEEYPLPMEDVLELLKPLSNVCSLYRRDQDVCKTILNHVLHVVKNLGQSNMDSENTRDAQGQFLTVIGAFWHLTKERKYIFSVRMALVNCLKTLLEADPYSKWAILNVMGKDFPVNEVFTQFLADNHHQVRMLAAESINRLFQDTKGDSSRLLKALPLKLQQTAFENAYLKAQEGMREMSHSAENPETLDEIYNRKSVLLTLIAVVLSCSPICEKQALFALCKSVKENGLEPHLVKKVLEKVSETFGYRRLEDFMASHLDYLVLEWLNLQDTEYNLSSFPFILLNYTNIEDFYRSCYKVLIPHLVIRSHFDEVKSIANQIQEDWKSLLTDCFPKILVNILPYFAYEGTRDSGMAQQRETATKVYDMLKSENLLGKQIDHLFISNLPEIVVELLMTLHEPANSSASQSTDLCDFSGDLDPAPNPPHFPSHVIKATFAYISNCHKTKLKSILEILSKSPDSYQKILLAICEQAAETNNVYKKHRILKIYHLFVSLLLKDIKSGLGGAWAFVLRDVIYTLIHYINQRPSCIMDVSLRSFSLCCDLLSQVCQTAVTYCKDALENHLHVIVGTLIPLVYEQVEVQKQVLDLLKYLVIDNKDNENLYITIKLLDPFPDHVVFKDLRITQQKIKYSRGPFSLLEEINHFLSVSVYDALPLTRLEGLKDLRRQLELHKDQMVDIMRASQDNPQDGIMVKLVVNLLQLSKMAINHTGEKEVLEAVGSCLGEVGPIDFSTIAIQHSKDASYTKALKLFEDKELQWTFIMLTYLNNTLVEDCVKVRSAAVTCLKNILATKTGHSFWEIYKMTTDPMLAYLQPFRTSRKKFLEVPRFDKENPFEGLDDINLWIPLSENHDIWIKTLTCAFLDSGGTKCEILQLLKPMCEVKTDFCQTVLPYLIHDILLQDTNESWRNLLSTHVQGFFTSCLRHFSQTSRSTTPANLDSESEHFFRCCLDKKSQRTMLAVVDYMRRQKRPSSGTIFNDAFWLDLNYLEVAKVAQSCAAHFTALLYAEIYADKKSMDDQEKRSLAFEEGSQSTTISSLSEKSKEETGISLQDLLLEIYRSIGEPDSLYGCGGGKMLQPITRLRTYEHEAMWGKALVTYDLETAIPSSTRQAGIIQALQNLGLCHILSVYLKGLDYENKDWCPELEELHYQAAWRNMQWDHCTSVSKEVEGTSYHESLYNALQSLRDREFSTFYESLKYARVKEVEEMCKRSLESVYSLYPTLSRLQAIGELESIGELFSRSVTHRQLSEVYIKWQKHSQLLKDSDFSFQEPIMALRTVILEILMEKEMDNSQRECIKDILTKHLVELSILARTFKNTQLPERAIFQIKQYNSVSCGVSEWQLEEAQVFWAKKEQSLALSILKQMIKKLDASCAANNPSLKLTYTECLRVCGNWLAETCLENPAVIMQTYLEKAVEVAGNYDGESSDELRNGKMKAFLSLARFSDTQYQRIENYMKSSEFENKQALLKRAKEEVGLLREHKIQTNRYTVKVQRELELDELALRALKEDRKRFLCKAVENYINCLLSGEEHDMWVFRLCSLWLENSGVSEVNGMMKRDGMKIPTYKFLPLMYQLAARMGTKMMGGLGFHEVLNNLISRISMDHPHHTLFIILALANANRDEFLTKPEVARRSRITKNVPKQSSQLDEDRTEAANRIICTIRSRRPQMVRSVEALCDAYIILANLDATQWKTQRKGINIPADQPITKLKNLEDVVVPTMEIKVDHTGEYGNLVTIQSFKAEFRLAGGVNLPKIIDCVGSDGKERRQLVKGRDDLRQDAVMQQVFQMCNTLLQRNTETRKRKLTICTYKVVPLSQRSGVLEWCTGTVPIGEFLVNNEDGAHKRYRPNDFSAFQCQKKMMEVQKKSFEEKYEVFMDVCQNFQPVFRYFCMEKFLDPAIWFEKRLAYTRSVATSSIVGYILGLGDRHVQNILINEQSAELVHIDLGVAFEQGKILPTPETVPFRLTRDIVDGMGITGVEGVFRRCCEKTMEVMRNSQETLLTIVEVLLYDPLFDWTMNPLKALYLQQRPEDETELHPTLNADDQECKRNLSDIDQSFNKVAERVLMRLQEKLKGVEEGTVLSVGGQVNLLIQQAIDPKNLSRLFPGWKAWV
Description: Determination of the Inhibitory Effect In Vitro of the Compound of Example 2 and its Analogues on ATM Using In Vitro ATM Kinase Assay
ATM enzymatic activity was measured using Cisbio's HTRF reagent in a 384-well plate (Greiner, #784075). […] The mixtures were centrifuged at 1000 rpm for 1 minute, and reacted in dark for 30 minutes at room temperature. Then, 5 μL of EDTA termination solution (250 mm) was added to terminate the reaction. After 5 μL of detection mixture (Anti-phospho-p53 (ser15)-K (Cisbio, #61P08KAE, 0.084 ng/μL) and Anti-GST-d2 (Cisbio, #61GSTDLA, 5.00 ng/μL)) was finally added to each well, the mixtures were cultured at room temperature over night, and the fluorescence values at 665 nm and 615 nm were measured on Envision 2104. The final concentration of each reagent of the experiment was as follows: 12.5 mM HEPES (pH8.0), 0.5% glycerol, 0.005% Brij-35, 0.625 mM DTT, 0.0125% BSA, 15 nM p53, 0.25 ng/μL ATM, 30 μM ATP, 2.5 mM Mg(AcO)2, 2.5 mM MnCl2, 62.5 mM EDTA, 0.021 ng/μL Anti-phospho-p53, 1.25 ng/μL Anti-GST-d2.
Relative fluorescence ratio was calculated: Ratio665 nm/615 nm−Ratiobackground, and inhibition rate %=(1−(relative fluorescence ratio of test compound well−relative fluorescence ratio of positive control well)/(relative fluorescence ratio of negative control well−relative fluorescence ratio of positive control well))×100 was calculated. Data were analyzed using GraphPad Prism6.0 and fitted using the curve equation: Y=Bottom+(Top−Bottom)/(1+10^((Log IC50−X)*HillSlope)), and IC50 values were calculated.

[2] = system: human colon cancer cell SW620; assay: MTT proliferation assay in combination with CPT-11, SW620; assay type: cell-based; conditions: medium containing 205 nM CPT-11, 5 days, read-out: IC50, inhibition of proliferation of SW620 combined with CPT-11
Description: Determination of the Inhibitory Effect of the Compound of Example 2 and its Analogues in Combination with CPT-11 on the Proliferation of Human Colon Cancer Cell SW620 Using MTT Assay
The human colon cancer cells SW620 were cultured in RPMI 1640 medium with 10% FBS and used at about 90% confluence for experiments. The SW620 cells were digested with trypsinase and centrifuged at 800 rpm for 5 minutes. The supernatant was discarded and the cell pellets were resuspended with fresh medium (RPMI 1640+10% FBS). The cells were seeded into 96-well cell culture plates with appropriate cell density and incubated at 37° C. overnight in a 5% CO2 incubator. […] The first concentration was 1 μM or 0.333 μM, the last concentration was DMSO negative control (0 μM). 5 μL of solutions of each concentration was added to 120 μL of medium (a 25 times dilution) and mixed by shaking. The cells were cultured overnight and the culture medium was replaced with 195 μL/well of fresh medium containing 205 nM CPT-11 and 5 μL/well of medium containing the test compound (the final concentration of DMSO was 1%). The culture plates were returned to incubator and cultured at 37° C., 5% CO2 for 5 days. At the day of experiment, medium was discarded and replaced with 100 μL of fresh serum-free DMEM medium containing MTT (0.5 mg/mL), and the culture was continued. 4 hours later, the medium was discarded and replaced with 100 μL/well of DMSO, the plate was shaken for 10 minutes in dark and the absorbance was measured at the wavelengths of 552 and 690 nm using a multi-function plate reader. Data were analyzed by Graph Pad Prism 6.0. The inhibitory effects of compounds on cell proliferation were plotted based on cell viability vs. the logarithm of compound concentration. Cell viability %=(ODcompound−ODbackground)/(ODDMSO−ODbackground)×100.
Table 3 summarizes the inhibitory effect data (IC50) of some compounds combined with CPT-11 on the proliferation of human colon cancer cell SW620.

Compound	IC50 [1] [nM]	inhibition at 0.0001 µM (ATM kinase) [%]	inhibition at 0.001 µM (ATM kinase) [%]	inhibition at 0.01 µM (ATM kinase) [%]	IC50 [2] [nM]	IC50 (ATM kinase) [nM]	IC50 ([2]; Homo sapiens, SW-620, 120 h) [nM]
Cc1nc(C(C)C)n2c1cnc1ccc(-c3ccc(OCCCN4CCCCC4)nc3)cc12 [Example 22, 1-isopropyl-3-methyl-8-(6-(3-(piperidin-1-yl)propoxy)pyridin-3yl)imidazo[1,5-a]quinoxaline]	9.91	31	94	100	16.3		
Cc1nc(C(C)C)n2c1cnc1ccc(-c3ccc(N4CCC(N(C)C)CC4)c(F)c3)cc12 [Example 24, N,N-dimethyl-1-(2-fluoro-4-(1-isopropyl-3-methylimidazo[1,5-a]quinoxalin-8-yl)phenyl)piperidin-4-amine]	11	30	84	98	20.8		
Cc1nc(C(C)C)n2c1cnc1ccc(-c3ccc(N4CCC(N(C)C)CC4)c(Cl)c3)cc12 [Example 25, N,N-dimethyl-1-(2-chloro-4-(1-isopropyl-3-methylimidazo[1,5-a]quinoxalin-8-yl)phenyl)piperidin-4-amine]	73.3		69		66.6		
Cc1nc(C(C)C)n2c1cnc1ccc(-c3ccc(N4CCC(N(C)C)CC4)c(C(F)(F)F)c3)cc12 [Example 26, N,N-dimethyl-1-(4-(1-isopropyl-3-methylimidazo[1,5-a]quinoxalin-8-yl)-2-(trifluoromethyl)phenyl)piperidin-4-amine]	48.6		54		51		
Cc1nc(N2C[C@@H](C)O[C@@H](C)C2)n2c1cnc1ccc(-c3ccc(OCCCN4CCC4)nc3)cc12 [Example 31, (2S,6R)-4-(8-(6-(3-(azetidin-1-yl)propoxy)pyridin-3-yl)-3-methylimidazo[1,5-a]quinoxalin-1-yl)-2,6-dimethylmorpholine]	9.2					0.62	10.1
Cc1nc(N2C[C@@H](C)O[C@@H](C)C2)n2c1cnc1ccc(-c3ccc(OCCCN4CCCC4)nc3)cc12 [Example 32, (2S,6R)-2,6-dimethyl-4-(3-methyl-8-(6-(3-(pyrrolidin-1-yl)propoxy)pyridin-3-yl)imidazo[1,5-a]quinoxalin-1-yl)morpholine]	7.6					0.1	9.2
Cc1nc(N2C[C@@H](C)O[C@@H](C)C2)n2c1cnc1ccc(-c3ccc(OCCCN4CCCCC4)nc3)cc12 [Example 33, (2S,6R)-2,6-dimethyl-4-(3-methyl-8-(6-(3-(piperidin-1-yl)propoxy)pyridin-3-yl)imidazo[1,5-a]quinoxalin-1-yl)morpholine]	18.5	28	92	100		0.2	18.3
Cc1nc(N2C[C@@H](C)O[C@@H](C)C2)n2c1cnc1ccc(-c3ccc(OCCN(C)C)nc3)cc12 [Example 36, 2-((5-(1-((2S,6R)-2,6-dimethylmorpholino)-3-methylimidazo[1,5-a]quinoxalin-8-yl)pyridin-2-yl)oxy)-N,N-dimethylethan-1-amine]	58.8		40		72.6		
Cc1nc(N2C[C@@H](C)O[C@@H](C)C2)n2c1cnc1ccc(-c3ccc(OCCCN(C)C)c(C(F)(F)F)c3)cc12 [Example 37]	24.9	12	66	100	17.6		
Cc1nc(N2C[C@@H](C)O[C@@H](C)C2)n2c1cnc1ccc(-c3ccc(N4CCC(N(C)C)CC4)nc3)cc12 [Example 38, 1-(5-(1-((2S,6R)-2,6-dimethylmorpholino)-3-methylimidazo[1,5-a]quinoxalin-8-yl)pyridin-2-yl)-N,N-dimethylpiperidin-4-amine]	6.9					0.2	8.7
Cc1nc(N2C[C@@H](C)O[C@@H](C)C2)n2c1cnc1ccc(-c3ccc(N4CCC(N(C)C)CC4)c(F)c3)cc12 [Example 39, 1-(4-(1-((2S,6R)-2,6-dimethylmorpholino)-3-methylimidazo[1,5-a]quinoxalin-8-yl)-2-fluorophenyl)-N,N-dimethylpiperidin-4-amine]	7.4					0.2	7.3
Cc1nc(N2C[C@@H](C)O[C@@H](C)C2)n2c1cnc1ccc(-c3ccc(N4CCC(N(C)C)CC4)c(Cl)c3)cc12 [Example 40, 1-(2-chloro-4-(1-((2S,6R)-2,6-dimethylmorpholino)-3-methylimidazo[1,5-a]quinoxalin-8-yl)phenyl)-N,N-dimethylpiperidin-4-amine]	6.5					0.2	8.1
CCc1nc(N2C[C@@H](C)O[C@@H](C)C2)n2c1cnc1ccc(-c3ccc(OCCCN(C)C)nc3)cc12 [Example 41, 3-((5-(1-((2S,6R)-2,6-dimethylmorpholino)-3-ethylimidazo[1,5-a]quinoxalin-8-yl)pyridin-2-yl)oxy)-N,N-dimethylpropan-1-amine]	42.6					0.15	54.3
C[C@@H]1CN(c2ncc3cnc4ccc(-c5ccc(OCCCN(C)C)nc5)cc4n23)C[C@H](C)O1 [Example 43, 3-((5-(1-((2S,6R)-2,6-dimethylmorpholino)imidazo[1,5-a]quinoxalin-8-yl)pyridin-2-yl)oxy)-N,N-dimethylpropan-1-amine]	16.7					0.41	17.9
Cc1nc(N2C[C@@H](C)O[C@@H](C)C2)n2c1cnc1ccc(-c3ccc(NCCCN(C)C)nc3)cc12 [Example 46, N^1-(5-(1-((2S,6R)-2,6-dimethylmorpholino)-3-methylimidazo[1,5-a]quinoxalin-8-yl)pyridin-2-yl)-N^3,N^3-dimethylpropane-1,3-diamine]	40.2					0.18	46.9
